Key:
[1] = tested on: melioidosis; details: in vivo; cited from earlier work
[2] = mouse, in vivo
[3] = in vivo; details: mouse, po, 100 mg/kg

Compound: C[C@H]1c2cccc(O)c2C(=O)C2=C(O)[C@]3(O)C(=O)C(C(N)=O)=C(O)[C@@H](N(C)C)[C@@H]3[C@@H](O)[C@@H]21 [Doxycycline, doxycycline monohydrate]
- Efficacy alone to clear melioidosis [1]: ineffective alone to clear melioidosis
- Doxycycline Absorption (ka) [2]: 1.68 h⁻¹
- AUC(0-t) [3]: 12700 ng·h/mL
- Tmax [3]: 1.24 h
- half-life [3]: 154 min
- k el [3]: 7.5e-05 s⁻¹
